According to patent publication EP4775577A1, “RAS INHIBITOR” (Tyligand Bioscience (Shanghai) Limited, priority 2023, dated 2025):
Structures can show the parent of a compound that is named as a salt. Where two headings read alike, the source gives them in different places.

Columns and labels:
[1] = tested on: KRAS G12V mutant NCI-H727 cells; assay: Proliferation inhibition of NCI-H727 cells, 3D CellTiter-Glo assay (Method B); format: cell-based, human; conditions: Method B, 3D culture with 0.65% methylcellulose, 5 days, CTG, read-out: NCI-H727 IC50/nM
Experimental: NCI-H727 cells (Nanjing Kebai Biotechnology Co., Ltd., catalog number CBP60182, adherent, culture medium RPMI-1640+10%FBS (GIBCO, Cat#10091-148)) were cultured at 37°C, 5% CO2, and 95% humidity.
3D cell viability assay: Cells in the logarithmic growth phase were harvested and counted using a platelet counter. Cell viability was assessed using the trypan blue exclusion method to ensure a viability of over 90%. The 3D cell culture medium was prepared by adding 1% MC (methylcellulose, Sigma, Cat#M0512) to RPMI-1640 medium and 10% FBS. The cell concentration was adjusted to approximately 25,000 cells/mL using the 3D medium, and the methylcellulose (MC) content was set to 0.65%. Then, 80 µL of cell suspension was added to each 96-well clear, flat-bottomed, black-walled plate (Greiner, Cat# 655096). The cells in the 96-well plates were cultured overnight at 37°C and 5% CO2.
Drug preparation for IC50 assay: A 5-fold drug solution was prepared using culture medium. 20 µL of the drug solution was added to each well of a 96-well plate seeded with cells to achieve a working concentration of up to 10 µM, with a 3× dilution, and 9 concentrations. 2 replicate wells for each drug concentration were set. The cells in the drug-treated 96-well plates were cultured at 37°C and 5% CO2 for additional 5 days, then CTG assay (CellTiter-Glo® Luminescent Cell Viability Assay (Promega, Cat#G7573)) were performed.
The cell plate was equilibrated to room temperature for 30 minutes and the CTG reagent was thawed. 50 µL of CTG solution was added to each well for detection and the plate was shaken on an orbital shaker for 5 minutes to lyse the cells. The cell plate was then placed at room temperature for 25 minutes to stabilize the cryo-luminescence signal, and the cryo-luminescence value was read (EnVision® multi-plate reader, PerkinElmer#2105).
(§1) Data was analyzed using GraphPad Prism software. The dose-response-inhibition equation was used to fit the data to obtain the dose-response curve, and the IC50 value (nM) was calculated accordingly. [formula]

[2] = tested on: KRAS G12D mutant AGS cells; assay: Proliferation inhibition of AGS cells, CellTiter-Glo assay; format: cell-based, human; conditions: 3 days, CTG, read-out: AGS IC50/nM
Experimental: AGS cells (Nanjing Kebai Biotechnology Co., Ltd., catalog number CBP60476, adherent, culture medium (F12K Nutrient Mixture+10% FBS (GIBCO, Cat#10091-148) were cultured at 37°C, 5% CO2, and 95% humidity at a density of 1500 cells/well. Cells in the logarithmic growth phase were harvested and counted using a Countstar automated cell counter based on the classic trypan blue staining method to ensure cell viability was above 90%. The cell concentration was adjusted, and 80 µL of cell suspension was added to each 96-well clear flat-bottomed, black-walled plate (Greiner, Cat# 655090). The cells in the 96-well plates were then cultured at 37°C and 5% CO2.
Drug preparation for IC50 assay: A 5-fold drug solution was prepared using culture medium. 20 µL of the drug solution was added to each well of a 96-well plate seeded with cells to achieve a working concentration of up to 10 µM, with a 3 × dilution, and a total of 9 concentrations. 2 replicate wells for each drug concentration were set. The cells in the drug-treated 96-well plates were cultured at 37°C and 5% CO2 for additional 3 days and then CTG assay were performed.
The cell plate was equilibrated to room temperature for 30 minutes and the CTG reagent (CellTiter-Glo® Luminescent Cell Viability Assay (Promega, Cat# G7573)) was thawed. 50 µL of CTG solution was added to each well and the plate was shaken on an orbital shaker for 2 minutes to lyse the cells. The cell plate was placed at room temperature for 10 minutes to stabilize the cryo-luminescence signal and the cryo-luminescence value was read (EnVision® Multifunctional microplate reader, PerkinElmer #2105).
as §1

Compound	IC50 ([1]; Homo sapiens, NCI-H727, 120 h)	IC50 ([2]; Homo sapiens, AGS, 72 h)	IC50 [1]	other results
CN1CC[C@H](C(F)F)[C@](C)(COc2nc(N3CCC[C@@](C)(O)C3)c3cc(C(F)(F)F)c(-c4cccc5sc(N)c(C#N)c45)c(F)c3n2)C1 (atropisomer, axis not shown) [Example 3A, (R)-2-amino-4-(2-(((3S,4S)-4-(difluoromethyl)-1,3-dimethylpiperidine-3-yl)methoxy)-8-fluoro-4-((R)-3-hydroxy-3-methylpiperidine-1-yl)-6-(trifluoromethyl)quinazoline-7-yl)benzo[b]thiophene-3-carbonitrile]	40.7 nM	112 nM		
CN1CC/C(=C\F)[C@](C)(COc2nc(N3CCC[C@@](C)(O)C3)c3cc(C(F)(F)F)c(-c4cccc5sc(N)c(C#N)c45)c(F)c3n2)C1 (atropisomer, axis not shown) [Example 4A, (R)-2-amino-4-(8-fluoro-2-(((S,E)-4-(fluoromethylene)-1,3-dimethylpiperidine-3-yl)methoxy)-4-((R)-3-hydroxy-3-methylpiperidine-1-yl)-6-(trifluoromethyl)quinazoline-7-yl)benzo[b]thiophene-3-carbonitrile]	66.9 nM	148 nM		
[2H]C([2H])([2H])N1CC/C(=C\F)[C@](C)(COc2nc(N3Cc4cc(C(=O)N(C)CCOC)nn4CC[C@@H]3C)c3cc(CC)c(-c4c(F)ccc5sc(N)c(C#N)c45)c(F)c3n2)C1 (atropisomer, axis not shown) [Example 267A]	3.9 nM	4.4 nM		
CN1CC/C(=C\F)[C@](C)(COc2nc(N3CCOC[C@@](C)(O)C3)c3cc(Cl)c(-c4c(F)ccc5sc(N)c(C#N)c45)c(F)c3n2)C1 (atropisomer, axis not shown; (Ra)) [Example 85A, (Ra)-2-amino-4-(6-chloro-8-fluoro-2-(((S,E)-4-(fluoromethylene)-1,3-dimethylpiperidine-3-yl)methoxy)-4-((S)-6-hydroxy-6-methyl-1,4-oxazacycloheptane-4-yl)quinazoline-7-yl)-5-fluorobenzo[b]thiophene-3-carbonitrile formate·formic acid salt]	17.4 nM	22.7 nM		
CN1CC[C@H](C(F)F)[C@](C)(COc2nc(N3CCOC[C@@](C)(O)C3)c3cc([N+](=O)[O-])c(-c4cccc5sc(N)c(C#N)c45)c(F)c3n2)C1 (atropisomer, axis not shown; (Ra)) [Example 86A]			1.9 nM	IC50 [2]: 4.9 nM
CN1CC/C(=C\F)[C@](C)(COc2nc(N3CCOC[C@@](C)(O)C3)c3cc([N+](=O)[O-])c(-c4cccc5sc(N)c(C#N)c45)c(F)c3n2)C1 (atropisomer, axis not shown; (Ra)) [Example 87A]			3.8 nM	
CN1CC[C@H](C(F)F)[C@](C)(COc2nc(N3CCOC[C@@](C)(O)C3)c3cc(C(F)(F)F)c(-c4c(F)ccc5sc(N)c(C#N)c45)c(F)c3n2)C1 (single isomer, unassigned) [Example 65A]			< 1.5 nM	
CN1CC[C@H](C(F)F)[C@](C)(COc2nc(N3CCOC[C@@](C)(O)C3)c3cc(C(F)(F)F)c(-c4c(F)ccc5sc(N)c(C#N)c45)c(F)c3n2)C1 (single isomer, unassigned) [Example 65B]			39.3 nM	
CN1CC/C(=C\F)[C@](C)(COc2nc(N3CCCn4nc(C(=O)N(C)C)c(Cl)c4C3)c3cc(C4CC4)c(-c4c(F)ccc5sc(N)c(C#N)c45)c(F)c3n2)C1 (single isomer, unassigned) [Example 161B]				IC50 [2]: 33.5 nM
[2H]C([2H])([2H])N1CC/C(=C\F)[C@](C)(COc2nc(N3Cc4cc(C(=O)N(C)C)nn4CC[C@@H]3C)c3cc(Cl)c(-c4c(F)ccc5sc(N)c(C#N)c45)c(C)c3n2)C1 (single isomer, unassigned) [Example 177A]		< 1.5 nM		
[2H]C([2H])([2H])N1CC/C(=C\F)[C@](C)(COc2nc(N3CCCn4nc(C(=O)N(C)C)c(Cl)c4C3)c3cc(Cl)c(-c4c(F)ccc5sc(N)c(C#N)c45)c(C)c3n2)C1 (single isomer, unassigned) [Example 179A]		4.2 nM		
[2H]C([2H])([2H])N1CC/C(=C\F)[C@](C)(COc2nc(N3Cc4c(F)c(C(=O)N(C)C)nn4CC[C@@H]3C)c3cc(CC)c(-c4c(F)ccc5sc(N)c(C#N)c45)c(F)c3n2)C1 (single isomer, unassigned) [Example 181A]		< 1.5 nM		
CN1CC[C@H](C(F)F)[C@](C)(COc2nc(N3CCOC[C@@](C)(O)C3)c3cc([N+](=O)[O-])c(-c4cccc5sc(N)c(C#N)c45)c(F)c3n2)C1 [Example 86]			4.5 nM	
[2H]C([2H])([2H])N1CC[C@H](C(F)F)[C@](C)(COc2nc(N3CCOC[C@@](C)(O)C3)c3cc([N+](=O)[O-])c(-c4cccc5sc(N)c(C#N)c45)c(F)c3n2)C1 [Example 86]		8.7 nM		
CN1CC/C(=C\F)[C@](C)(COc2nc(N3CCOC[C@@](C)(O)C3)c3cc([N+](=O)[O-])c(-c4cccc5sc(N)c(C#N)c45)c(F)c3n2)C1 [Example 87]			9 nM	
[2H]C([2H])([2H])N1CC/C(=C\F)[C@](C)(COc2nc(N3CCOC[C@@](C)(O)C3)c3cc(C#N)c(-c4c(F)ccc5sc(N)c(C#N)c45)c(F)c3n2)C1 [Example 88, 7-(2-Amino-3-cyano-5-fluorobenzo[b]thiophene-4-yl)-8-fluoro-2-(((S,E)-4-(fluoromethylene)-3-methyl-1-(methyl-d3)piperidine-3-yl)methoxy)-4-((S)-6-hydroxy-6-methyl-1,4-oxazacycloheptane-4-yl)quinazoline-6-carbonitrile]	23.3 nM			
[2H]C([2H])([2H])N1CC[C@H](C(F)F)[C@](C)(COc2nc(N3CCOC[C@@](C)(O)C3)c3cc(C#N)c(-c4c(F)ccc5sc(N)c(C#N)c45)c(F)c3n2)C1 [Example 89, 7-(2-Amino-3-cyano-5-fluorobenzo[b]thiophene-4-yl)-2-(((3S,4S)-4-(difluoromethyl)-3-methyl-1-(methyl-d3)piperidine-3-yl)methoxy)-8-fluoro-4-((S)-6-hydroxy-6-methyl-1,4-oxazacycloheptane-4-yl)quinazoline-6-carbonitrile]	12.4 nM			
[2H]C([2H])([2H])N1CC/C(=C\F)[C@](C)(COc2nc(N3CCOC[C@@](C)(O)C3)c3cc(C#N)c(-c4cccc5sc(N)c(C#N)c45)c(F)c3n2)C1 [Example 90, 7-(2-Amino-3-cyanobenzo[b]thiophene-4-yl)-8-fluoro-2-(((S,E)-4-(fluoromethylene)-3-methyl-1-(methyl-d3)piperidine-3-yl)methoxy)-4-((S)-6-hydroxy-6-methyl-1,4-oxazacycloheptane-4-yl)quinazoline-6-carbonitrile]	58.3 nM			
CN1CC/C(=C\F)[C@](C)(COc2nc(N3CCCn4nc(C(=O)N(C)C)nc4C3)c3cc(C(F)(F)F)c(-c4cccc5sc(N)c(C#N)c45)c(F)c3n2)C1 [Example 101]		100 nM		
CN1CC/C(=C\F)[C@](C)(COc2nc3c(F)c(-c4cccc5sc(N)c(C#N)c45)c(Cl)cc3c(N3CCCn4nc(C(=O)N(C)C)cc4C3)c2C#N)C1 [Example 102]	4270 nM			
CN1CC/C(=C\F)[C@](C)(COc2nc(N3CCCn4nc(C(=O)N(C)C)cc4C3)c3cc(C#N)c(-c4cccc5sc(N)c(C#N)c45)c(F)c3n2)C1 [Example 103]		301 nM		
CN1CCC(=CF)C(C)(COc2nc(N3CCC(C#N)C(O)C3)c3cc(C(F)(F)F)c(-c4cccc5sc(N)c(C#N)c45)c(F)c3n2)C1 (stereo not drawn) [Example 155]			21 nM	
